Laboratory results published in paper PMC9234671, “Molecular determinants of αVβ5 localization in flat clathrin lattices – role of αVβ5 in cell adhesion and proliferation” (Journal of Cell Science, 2022).
“Also recorded” adds a separate entry of the source.

Tests used:
full-length human ARH = molecular target: T1, full-length human ARH (Homo sapiens, UniProt Q5SW96); experiment: Microscale thermophoresis (MST), ARH; type: binding; conditions: concentration range tested up to 50 µM for β1
T1 construct: The full-length human ARH gene was cloned into the pETNKI-6xhis-3C-LIC vector; made in house; host or cells: E. coli BL21(DE3)
T1 sequence (Q5SW96 1-308): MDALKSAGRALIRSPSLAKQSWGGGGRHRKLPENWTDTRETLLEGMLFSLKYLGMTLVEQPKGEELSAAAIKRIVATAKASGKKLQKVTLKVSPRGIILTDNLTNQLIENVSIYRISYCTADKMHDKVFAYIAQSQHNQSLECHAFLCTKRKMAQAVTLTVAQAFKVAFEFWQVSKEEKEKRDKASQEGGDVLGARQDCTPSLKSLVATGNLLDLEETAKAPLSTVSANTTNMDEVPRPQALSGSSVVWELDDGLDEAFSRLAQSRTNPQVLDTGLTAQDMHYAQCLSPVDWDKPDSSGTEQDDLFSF
Excerpt: (§1) Fig. 2. Adaptor protein binding to integrin β subunits. (A) Colocalization of integrin chimeras fused to the promiscuous biotin ligase BirA* (green in merge) with vinculin (red; left panels) or clathrin (red; right panels) in PA-JEB/β4 keratinocytes. Actin is shown in blue. Nuclei are stained with DAPI (cyan). Scale bars: 20 μm. (B) Representative western blots of BioID assays performed using the integrin chimeras shown in A. Quantifications of ARH, Numb and talin signal intensities normalized to streptavidin-HRP levels are shown (n=3; bars show mean±s.d.). (C) Representative western blots of pulldown assays (from two repeats) using synthetic integrin β cytoplasmic domains in RAC-11P cell lysates.
The full-length human ARH gene was cloned into the pETNKI-6xhis-3C-LIC vector ([Luna-Vargas et al., 2011]) and 6xhis–ARH protein was produced in Bl21(DE3) E. coli cells. Cells were grown at 37°C until an optical density at 600 nm (OD600) of 0.6 was reached. Temperature was reduced to 30°C and protein was expressed upon induction with 0.4 mM IPTG for 3.5 h. Cells were harvested and resuspended in lysis buffer (20 mM HEPES, pH 7.5, 200 mM NaCl, 1 mM TCEP and 5 μg ml^−1 DNase). After sonication, cell debris and insoluble proteins were removed by centrifugation (21,000 g for 30 min). 6xhis–ARH was purified from the soluble fraction using nickel Sepharose beads and eluted in 20 mM HEPES, pH 7.5, 200 mM NaCl, 1 mM TCEP and 250 mM imidazole. Fractions containing 6xhi–ARH were further purified on a SEC650 size exclusion column (Bio-Rad), equilibrated with 20 mM HEPES, pH 7.5, 100 mM NaCl and 1 mM TCEP.
(§2) All MST measurements were performed on a Monolith NT.115 red-blue (Nanotemper, Munich, Germany) using premium-coated capillaries to reduce non-specific interaction of the proteins with the glass surface. Both interaction partners (ligand and receptor) were transferred into MST buffer (20 mM Tris-HCl pH 7.5, 200 mM sodium chloride, 1 mM TCEP and 0.05% Tween-20) to avoid artifacts derived from buffer mismatches. […] Data was analyzed using the MO Affinity Analysis Software (Nanotemper).

Numb-PTB (20-175) = molecular target: T2, Numb-PTB (20-175) (Homo sapiens, UniProt P49757); experiment: Microscale thermophoresis (MST), Numb; type: binding; conditions: concentration range tested up to 50 µM for β1
T2 construct: A pETNKI-6xhis-3C-Numb-PTB (20-175) construct was expressed in Rosetta2 (DE3) cells; 6xHis-3C (N, cleaved yes); made in house; host or cells: E. coli Rosetta2 (DE3)
T2 sequence (P49757 20-175): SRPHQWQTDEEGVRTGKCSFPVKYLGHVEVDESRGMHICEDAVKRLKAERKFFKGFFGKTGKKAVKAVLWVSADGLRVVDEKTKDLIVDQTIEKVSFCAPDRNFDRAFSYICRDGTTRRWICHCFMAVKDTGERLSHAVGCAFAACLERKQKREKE
Excerpt: as §1
A pETNKI-6xhis-3C-Numb-PTB (20-175) construct was expressed in Rosetta2 (DE3) cells for 18 h at 20°C. Cells were lysed (25 mM Tris-HCl pH 8.0, 10 mM imidazole, 200 mM NaCl, 1 mM TCEP, 5 μg/ml DNase) and sonicated, after which insoluble proteins and cell debris were removed by centrifugation (21,000 g for 30 min at 4°C). Soluble lysate was applied to a nickel Sepharose column and beads were washed with wash buffer (lysis buffer without DNase) before protein was eluted in wash buffer supplemented with 250 mM imidazole. The 6xhis tag was cleaved off by his-3C protease during dialysis against 25 mM Tris-HCl pH 8.0, 100 mM NaCl, 1 mM TCEP, 16 h at 4°C. Elution fractions were pooled, diluted with six volumes of 20 mM HEPES pH 7.5, 1 mM TCEP and applied to a 1 ml Resource S cation-exchange column (Cytiva). Protein was eluted in a NaCl gradient (50–700 mM) in 25 mM HEPES (pH 7.5). 6xhis-Numb-PTB was concentrated and further purified by size-exclusion chromatography (SEC70 column, Bio-Rad) in 25 mM Tris-HCl pH 8.0, 200 mM NaCl and 1 mM TCEP.
All MST measurements were performed on a Monolith NT.115 red-blue (Nanotemper, Munich, Germany) using premium-coated capillaries to reduce non-specific interaction of the proteins with the glass surface. […] Data was analyzed using the MO Affinity Analysis Software (Nanotemper).

kindlin-2 = experiment: Microscale thermophoresis (MST), kindlin-2; type: binding; conditions: titration of kindlin-2 to 200 nM ATTO488-labeled cytoplasmic tail peptide; n≥3
Procedure: Kindlin-2 was expressed and purified as described in [Böttcher et al. (2017)]. Briefly, kindlin constructs were cloned into pCoofy17 ([Scholz et al., 2013]), which adds an N-terminal His10-Sumo tag and expressed soluble in E. coli Rosetta at 18°C overnight. After purification by immobilized-metal affinity chromatography (IMAC) in high-salt TBS buffer (20 mM Tris, pH 7.5, 500 mM NaCl, 1 mM TCEP), the Sumo tag was removed by SenP2 (obtained from MPIB Biochemistry Core Facility) digest overnight and the protein was further purified by SEC using TBS (20 mM Tris-HCl pH 7.5, 200 mM NaCl, 1 mM TCEP) containing 5% glycerol as running and storage buffer. After the final chromatography, the purity, integrity and identity of recombinant kindlin-2 and talin-1 head domain were controlled by UV spectrum, SDS-PAGE, high-resolution total mass and dynamic light scattering (DLS).
as §2, with “(Nanotemper). […]” for “(Nanotemper).”

talin = experiment: Peptide pulldown, talin; type: binding; conditions: desthiobiotin tail peptide on streptavidin beads, RAC-11P lysate, 4°C, 4 h; western blot; two repeats
Procedure: (§3) Peptide pulldowns were carried out as previously described ([Böttcher et al., 2012]) with the mouse β1 wild-type cytoplasmic tail peptide ([…]-OH) and a scrambled peptide ([…]-OH), mouse β3 wild-type tail peptide ([…]-OH), mouse β5 wild-type tail peptide ([…]-OH), β5 Δ8aa tail peptide ([…]-OH) and scrambled peptide […].
(§4) The tail peptides were synthesized de novo with a desthiobiotin on the N-terminus, coupled to Dynabeads MyOne streptavidin C1 (10 mgml^−1, Invitrogen) and incubated with RAC-11P cell lysates (prepared with M-PER reagent, Thermo Fisher Scientific) at 4°C with rotation for 4 h. After three washes with wash buffer (M-PER diluted 1:1 with PBS), bound proteins were eluted in 2× Laemmli buffer at 95°C for 5 min and separated on an 8% SDS-PAGE gel.

KANK-2 = experiment: Peptide pulldown, KANK-2; type: binding; conditions: desthiobiotin tail peptide on streptavidin beads, RAC-11P lysate, 4°C, 4 h; western blot; two repeats
Procedure: as §3, §4

kindlin-1/2 = experiment: Peptide pulldown, kindlin-1/2; type: binding; conditions: desthiobiotin tail peptide on streptavidin beads, RAC-11P lysate, 4°C, 4 h; western blot; two repeats
Procedure: as §3, §4

ARH = experiment: Peptide pulldown, ARH; type: binding; conditions: desthiobiotin tail peptide on streptavidin beads, RAC-11P lysate, 4°C, 4 h; western blot; two repeats
Procedure: as §3, §4

Numb = experiment: Peptide pulldown, Numb; type: binding; conditions: desthiobiotin tail peptide on streptavidin beads, RAC-11P lysate, 4°C, 4 h; western blot; two repeats
Procedure: as §3, §4

integrin αVβ3/αVβ5 = conditions: stated as known, no reference given; cited from earlier work
Excerpt: The integrin β5 plays a role in breast cancer and osteosarcoma cell proliferation ([Bianchi-Smiraglia et al., 2013]; [Lock et al., 2018]). Here, we analyzed the role of integrin β5 in cell proliferation of SW620, HT29 and SW480 colorectal cancer cells, in which β5 localizes predominantly in FCLs, FAs or is distributed equally in both adhesions, respectively. Because none of these cell lines express the integrin β3 subunit (Fig. S5A), we used the integrin αVβ3/αVβ5 antagonist cilengitide as a tool to inhibit αVβ5 function. The optimal concentration for inhibition was determined for each cell li ...

[1] = tested on: integrin β5 clustering in SW620, HT29 and SW480 cells; experiment: Inhibition of β5 clustering (confocal microscopy); type: cell-based, human; conditions: cells fixed after 3 days of cilengitide treatment
Procedure: (§5) Fig. 6. Integrin β5 promotes colorectal cancer cell proliferation. […] Cells were fixed after 3 days of treatment and β5 (green in merge) and vinculin (magenta) were visualized using confocal microscopy. Cell nuclei are shown in blue. Scale bars: 20 μm. (B) Cells were seeded on day 0 and proliferation was measured from day 1–5 in cells with or without cilengitide (added at day 1). (C,E) FACS plots showing the expression of β5 in SW620 (C) and HT29 (E) wild-type (WT) and β5 knockout cells. Cells stained with a secondary PE-conjugated antibody only were used as negative control (n=2). (D,F) Proliferation of SW620 and HT29 wild-type and β5 knockout cells. (G) Representative IF images showing integrin β5 (green in merge), vinculin (red), actin (blue), nuclei (cyan) in SW620 wild-type, β5-deficient, and cilengitide-treated cells that were cultured for 5 days on coverslips prior to fixation. Scale bars: 100 μm. (H,I) Proliferation of SW620 (H) and HT29 (I) wild-type and β5 knockout cells on 3.2 μg ml^−1 collagen. Results shown represent mean±s.d. of three biological replicates, of which each experiment was performed in triplicate. *P<0.05 (two-sided unpaired Student's t-test).
(§6) PA-JEB/β4 keratinocytes were seeded on glass coverslips and cultured in complete KGM medium for 24 h, and then treated with DMEM plus 10% FCS for 24 h. […]

SW620 cells [2] = experiment: Cell growth morphology (immunofluorescence), SW620; type: cell-based, human; conditions: cilengitide-treated SW620 cells cultured for 5 days on coverslips; control cells mainly formed a 2D monolayer
Procedure: as §5, §6

SW620 cells [3] = experiment: Proliferation assay (Crystal Violet), SW620; type: cell-based, human; conditions: cilengitide added at day 1, measured day 1–5; concentration optimised per cell line, not given; three biological replicates
Procedure: as §5, with “Results shown represent mean±s.d. of three biological replicates, of which each experiment was performed in triplicate. *P<0.05 (two-sided unpaired Student's t-test).” left out
(§7) Cells were seeded at a density of 5×10^4 cells per well in a 96-well plate and treated with cilengitide or DMSO, as indicated in the figure legend. […] Cells were air-dried overnight and lysed in 2% SDS, after which the OD value of Crystal Violet at 490 nm was determined using an Epoch microplate reader equipped with Gen5 software. […]

SW480 cells = experiment: Proliferation assay (Crystal Violet), SW480; type: cell-based, human; conditions: cilengitide added at day 1, measured day 1–5; concentration optimised per cell line, not given; three biological replicates
Procedure: as §5, with “Results shown represent mean±s.d. of three biological replicates, of which each experiment was performed in triplicate. *P<0.05 (two-sided unpaired Student's t-test).” left out
as §7

HT29 cells = experiment: Proliferation assay (Crystal Violet), HT29; type: cell-based, human; conditions: cilengitide added at day 1, measured day 1–5; concentration optimised per cell line, not given; three biological replicates
Procedure: as §5, with “Results shown represent mean±s.d. of three biological replicates, of which each experiment was performed in triplicate. *P<0.05 (two-sided unpaired Student's t-test).” left out
as §7

Row | Substance | binding to ARH by MST (β1) (full-length human ARH) | binding to Numb by MST (β1) (Numb-PTB (20-175)) | binding to kindlin by MST (kindlin-2) | interaction with talin in pulldown (talin) | interaction with KANK-2 in pulldown (KANK-2) | interaction with kindlin-1/2 in pulldown (kindlin-1/2) | interaction with ARH in pulldown (ARH) | interaction with Numb in pulldown (Numb) | integrin αVβ3/αVβ5 antagonism (integrin αVβ3/αVβ5) | inhibition of β5 clustering [1] | growth phenotype (SW620 cells [2]) | proliferation, SW620 (SW620 cells [3]) | proliferation, SW480 (SW480 cells) | proliferation, HT29 (HT29 cells)
1 | HDRREFAKFEKEKMNAKWDTGENPIYKSAVTTVVNPKYEGK-OH [β1, synthetic integrin β1 cytoplasmic tail peptide] | no binding; also recorded: unable to detect binding | no binding; also recorded: unable to detect binding | much higher affinity than β3 and β5 | interaction | interaction | interaction | not β1 and β3, bind to Numb and ARH | not β1 and β3, bind to Numb and ARH | – | – | – | – | – | –
2 | cilengitide (RGDFV; chains of the INN, looked up) [integrin αVβ3/αVβ5 antagonist] | – | – | – | – | – | – | – | – | antagonist | Inhibition of β5 clustering | grew on top of each other | significant decrease in proliferation | significant decrease in proliferation | significant decrease in proliferation
